The source of these data is US20190269666A1, “COMBINATION THERAPY WITH MERESTINIB AND ANTI-PD-L1 OR ANTI-PD-1 INHIBITORS FOR USE IN THE TREATMENT OF CANCER” (Eli Lilly and Company, priority 2016, published 2019).

The structures appear in SMILES notation.

In the experiment the test system is EMT6 syngeneic mouse mammary carcinoma tumor model. Put plainly: EMT6 syngeneic mouse mammary carcinoma tumor model. The experiment is classed as in vivo. An excerpt: A syngeneic mouse tumor model is used to evaluate potential combination effect of merestinib and anti-PD-L1 antibody in the EMT6 model (Rockwell, S C, Kallman, R F, Fajardo, L F. Characteristics of a serially transplanted mouse mammary tumor and its tissue-culture-adpated derivative. J Nat Cancer Institute. 1972, 49:735-749). Anti-PD-L1 antibody surrogate (178G7, LSN3370181) (Eppihimer et al. Microcirculation 2002:9(2):133) is used in the mouse study.
Female BALB/c mice (18-20 gm) from Envigo (Harlan Laboratories) are used for this study. Food and water are available ad libitum. Animals are acclimated for at least one week prior to any experimental manipulation. The study is performed in accordance with AALAC accredited institutional guidelines.
Merestinib is formulated as a solution in 10% PEG 400 in 90% (20% Captisol in H2O) once weekly. Anti-PD-L1 antibody (LSN3370181) is formulated in PBS (phosphate buffered saline).
EMT6 cells (from internal in vivo pharmacology cell culture group lot EMT6-3184882) are used for implantation. Approximately 5×10^5 cells in HBSS are implanted subcutaneously into the right hind flank of the animal under anesthesia. Prior to commencing drug administration, animals are randomized to treatment groups based on body weight.
There are 4 arms in this study with 15 animals per group: 1) vehicle control; 2) merestinib 12 mg/kg QD×21, PO; 3) LSN3370181 (anti-PD-L1) 0.5 mg/mouse once weekly for 3 weeks via IP; 4) combination merestinib+anti-PD-L1 antibody; combination therapies follow the same dosing schedule as the monotherapies. Treatment is initiated on Day 6 post tumor cell implantation and continued for 21 days (final dose administered on Day 26). Tumor volumes and body weight are measured bi-weekly. Tumor volume is estimated by using the formula: v=l×w^2×0.536 where l=larger of measured diameter and w=smaller of perpendicular diameter. Animals are sacrificed using CO2 and cervical dislocation.
On Day 20 post tumor cell implant, 5 animals from each group are taken down for harvesting of spleens and tumors for mechanism of action (MOA) studies (FACs analysis, gene expression). The remaining animals continue with treatment as described above. At the end of the dosing period (Day 27 post tumor cell implant), animals are observed for tumor growth for 43 days. Animals are removed from study when tumor burden reached or exceeded 2500 mm^3. To assess immune memory, on Day 70 post tumor cell implant, animals that remained on study (complete responders and partial responders) are rechallenged with new implant of EMT6 cells on the contralateral side and observed for tumor growth for 15 days.
Tumor volume is transformed to the log scale to equalize variance across time and treatment groups. The log volume data are analyzed with a two-way repeated measures analysis of variance by time and treatment using the MIXED procedures in SAS software (Version 9.3). The correlation model for the repeated measures is spatial power. Treated groups are compared to the control group at each time point. The MIXED procedure is also used separately for each treatment group to calculate least squares means and standard errors at each time point. Both analyses account for the autocorrelation within each animal and the loss of data that occurs when animals are removed or lost before end of study.
Bayesian ordinal logistic regression analysis is used to obtain the posterior probability of the combination treatment effect for synergy, additivity or antagonism was conducted on Day 69 for this study. Each animal was classified into one of 3 response categories, based on its Day 69 tumor volume and by comparison to the vehicle data: I) Non-responder (NR), II) Partial Responder (PR), III) Complete Responder (CR). CR is defined by tumor volume […] at Day 69. NR is defined as unperturbed exponential growth, similar to vehicle animals. […]

On to `Cc1ccc(C(=O)Nc2ccc(Oc3cc4cnn(C)c4cc3-c3cn[nH]c3)c(F)c2)c(=O)n1-c1ccc(F)cc1` [merestinib, N-(3-fluoro-4-(1-methyl-6-(1H-pyrazol-4-yl)-1H-indazol-5-yloxy)phenyl)-1-(4-fluorophenyl)-6-methyl-2-oxo-1,2-dihydropyridine-3-carboxamide], for which, where the note is “Day 31”, the “Regression (%)” value was “No tumor regression” and the “T/C %” value was 35.2%. Under “animals of 10/group”, the “Day 69 Treatment Responders NR (Non-responder)” value is 10 and the “Day 69 Treatment Responders PR (Partial Responder)” value was determined as 0. In addition, for the setting “animals of 10/group, tumor volume ≤25 mm^3”, the “Day 69 Treatment Responders CR (Complete Responder)” value turned out to be 0. The “single agent anti-tumor activity” value (mouse, in vivo) is recorded as “weak single agent anti-tumor activity”.
